Values joined by “and” are separate entries in the source; they are usually repeats but may differ in a detail not shown here. Equal entries are not always repeated. After the bases stand the sugars from the 5' end (letter, count) and the backbone: PS all phosphorothioate, else s phosphorothioate and o phosphodiester by linkage. Methylation of C is not given here. e = 2'-O-(2-methoxyethyl) (MOE); k = constrained ethyl (cEt); d = 2'-deoxy (DNA)
Molecular target: SOD1
Conditions: ASO

GCTTCCCCACACCTTCACTG (sugars e5 d10 e5, linkages s1 o3 s11 o3 s1)
target mRNA inhibition (A431, 0.12 µM): 0%
target mRNA inhibition (A431, 0.6 µM): 0%
target mRNA inhibition (A431, 3 µM): 11%
target mRNA inhibition (A431, 15 µM): 0%
target mRNA inhibition (HepG2, 0.222 µM): 14%
target mRNA inhibition (HepG2, 0.667 µM): 32%
target mRNA inhibition (HepG2, 2 µM): 79%
target mRNA inhibition (HepG2, 6 µM): 55%

GCTTGAATGACAAAGAA (sugars e2 k2 d8 k2 e3, PS)
target mRNA inhibition (HepG2, 5 µM): 24%

GCTTTTTCATGGACCAC (sugars e3 k2 d7 k2 e3, PS)
target mRNA inhibition (HepG2, 3 µM): 71%

GGAATGTTTATTGGGCG (sugars e2 k2 d8 k2 e3, PS)
target mRNA inhibition (HepG2, 4 µM): 37%

GGATAACAGATGAGTTA (sugars e2 k2 d9 k2 e2, PS)
target mRNA inhibition (HepG2, 4 µM): 63%

GGATTAAAGTGAGGACC (sugars e3 k2 d7 k2 e3, PS)
target mRNA inhibition (HepG2, 3 µM): 30%

GGCCAGACCTCCGCGCCTCG (sugars e5 d10 e5, PS)
target mRNA inhibition (HepG2, 4 µM): 49%

GGCCTTCAGTCAGTCCTTTA (sugars e5 d10 e5, PS)
target mRNA inhibition (HepG2, 5 µM): 41% and 39%

GGCGATCCCAATTACAC (sugars e2 k2 d8 k2 e3, PS)
target mRNA inhibition (HepG2, 4 µM): 33%

GGCGATCCCAATTACACC (sugars e5 d8 e5, linkages s1 o3 s9 o2 s2)
target mRNA inhibition (A431, 0.062 µM): 3%
target mRNA inhibition (A431, 0.185 µM): 1%
target mRNA inhibition (A431, 0.556 µM): 29%
target mRNA inhibition (A431, 1.667 µM): 0%
target mRNA inhibition (A431, 5 µM): 27%
target mRNA inhibition (A431, 15 µM): 0%
target mRNA inhibition (SH-SY5Y, 0.062 µM): 0%
target mRNA inhibition (SH-SY5Y, 0.185 µM): 3%
target mRNA inhibition (SH-SY5Y, 0.556 µM): 21%
target mRNA inhibition (SH-SY5Y, 1.667 µM): 31%
target mRNA inhibition (SH-SY5Y, 5 µM): 47%
target mRNA inhibition (SH-SY5Y, 15 µM): 66%

GGCGATCCCAATTACACCAC (sugars e5 d10 e5, linkages s1 o3 s11 o3 s1)
target mRNA inhibition (A431, 0.12 µM): 0%
target mRNA inhibition (A431, 0.6 µM): 0%
target mRNA inhibition (A431, 3 µM): 0%
target mRNA inhibition (A431, 15 µM): 30%
target mRNA inhibition (HepG2, 0.222 µM): 24%
target mRNA inhibition (HepG2, 0.667 µM): 34%
target mRNA inhibition (HepG2, 2 µM): 79%
target mRNA inhibition (HepG2, 6 µM): 55%

GGCGATCCCAATTACACCAC (sugars e6 d8 e6, linkages s1 o3 s10 o3 s2)
target mRNA inhibition (A431, 0.062 µM): 7%
target mRNA inhibition (A431, 0.185 µM): 0%
target mRNA inhibition (A431, 0.556 µM): 0%
target mRNA inhibition (A431, 1.667 µM): 23%
target mRNA inhibition (A431, 5 µM): 14%
target mRNA inhibition (A431, 15 µM): 6%
target mRNA inhibition (SH-SY5Y, 0.062 µM): 0%
target mRNA inhibition (SH-SY5Y, 0.185 µM): 0%
target mRNA inhibition (SH-SY5Y, 0.556 µM): 8%
target mRNA inhibition (SH-SY5Y, 1.667 µM): 23%
target mRNA inhibition (SH-SY5Y, 5 µM): 49%
target mRNA inhibition (SH-SY5Y, 15 µM): 66%

GGCGATCCCAATTACACCAC (sugars e6 d9 e5, linkages s1 o4 s10 o2 s2)
target mRNA inhibition (A431, 0.062 µM): 0%
target mRNA inhibition (A431, 0.185 µM): 0%
target mRNA inhibition (A431, 0.556 µM): 0%
target mRNA inhibition (A431, 1.667 µM): 0%
target mRNA inhibition (A431, 5 µM): 4%
target mRNA inhibition (A431, 15 µM): 0%
target mRNA inhibition (SH-SY5Y, 0.062 µM): 0%
target mRNA inhibition (SH-SY5Y, 0.185 µM): 3%
target mRNA inhibition (SH-SY5Y, 0.556 µM): 20%
target mRNA inhibition (SH-SY5Y, 1.667 µM): 38%
target mRNA inhibition (SH-SY5Y, 5 µM): 61%
target mRNA inhibition (SH-SY5Y, 15 µM): 84%

GGCTTGAATGACAAAGA (sugars e2 k2 d8 k2 e3, PS)
target mRNA inhibition (HepG2, 5 µM): 54%

GGGCCTCAGACTACATC (sugars e2 k2 d8 k2 e3, PS)
target mRNA inhibition (HepG2, 4 µM): 55%

GGGCCTCAGACTACATC (sugars e3 k2 d7 k2 e3, PS)
target mRNA inhibition (HepG2, 3 µM): 24%

GTACTTTAAAGCAACTCTGA (sugars e5 d10 e5, PS)
target mRNA inhibition (HepG2, 5 µM): 22%

GTCACACAATTACACTT (sugars e2 k2 d8 k2 e3, PS)
target mRNA inhibition (HepG2, 5 µM): 28%

GTCAGTCCTTTAATGCTTCC (sugars e5 d10 e5, PS)
target mRNA inhibition (HepG2, 5 µM): 34%

GTCATCTGCTTTTTCAT (sugars e3 k2 d7 k2 e3, PS)
target mRNA inhibition (HepG2, 3 µM): 74%

GTCGCCCTTCAGCACGC (sugars e2 k2 d8 k2 e3, PS)
target mRNA inhibition (HepG2, 4 µM): 60%

GTGAGGACCTGCACTGG (sugars e3 k2 d7 k2 e3, PS)
target mRNA inhibition (HepG2, 3 µM): 21%

GTGATCATAAATCAGTT (sugars e2 k2 d8 k2 e3, PS)
target mRNA inhibition (HepG2, 5 µM): 33%

GTGATCATAAATCAGTTTCT (sugars e5 d10 e5, PS)
target mRNA inhibition (HepG2, 5 µM): 37%

GTGCCATACAGGGTTTT (sugars e2 k2 d9 k2 e2, PS)
target mRNA inhibition (HepG2, 5 µM): 28%
